Here are results for two molecules from patent US10150770B2, “Crystal form of bisulfate of JAK inhibitor and preparation method therefor” (Jiangsu Hengrui Medicine Co., Ltd., priority 2014, dated 2018).

This data set in a line: Stability test of solid forms spread flat in the air (lighting, heating, high humidity), purity detected by HPLC. It counts as physicochemical. Conditions: for purity as detected by HPLC, 40° C.: heating 40° C.; for purity as detected by HPLC, 60° C.: heating 60° C.; for purity as detected by HPLC, RH 75%: high humidity RH 75%; for purity as detected by HPLC, RH 90%: high humidity RH 90%; for purity as detected by HPLC, Lighting: lighting 4500 Lux. Here is the method: The amorphous sample prepared in Example 1 and crystal form I prepared in Example 3 were spread flat in the air to test their stability under the conditions of lighting (4500 Lux), heating (40° C., 60° C.), and high humidity (RH 75%, RH 90%).

For `COc1nsc(NC(=O)N2C[C@H]3C[C@H](N(C)c4ncnc5[nH]ccc45)C[C@H]3C2)n1.O=S(=O)(O)O` [Amorphous Form, (3aR,5s,6aS)—N-(3-methoxyl-1,2,4-thiadiazole-5-yl)-5-(methyl(7H-pyrrolo[2,3-d]pyrimidine-4-yl)amino)hexahydrocyclopenta[c]pyrrole-2(1H)-formamide bisulfate], the “effect of high humidity on stability” value is given as “does not have much effect”. Moreover, where the note is “day 0”, the “purity as detected by HPLC, 40° C.” value is 98.33%; the “purity as detected by HPLC, 60° C.” value was found to be 98.33%; the “purity as detected by HPLC, RH 75%” value stood at 98.33%; the “purity as detected by HPLC, RH 90%” value was determined as 98.33%. Also, the “purity as detected by HPLC, Lighting” value (day 0) is reported as 98.33%. For the same molecule, where the note is “day 5”, the “purity as detected by HPLC, 40° C.” value amounted to 97.65%; the “purity as detected by HPLC, 60° C.” value turned out to be 94.53%; the “purity as detected by HPLC, RH 75%” value was determined as 98.32%; the “purity as detected by HPLC, RH 90%” value is 99.14%. Moreover, the “purity as detected by HPLC, Lighting” value (day 5) was 98.04%. Further, for the setting “day 10”, the “purity as detected by HPLC, 40° C.” value turned out to be 96.61%; the “purity as detected by HPLC, 60° C.” value turned out to be 92.12%; the “purity as detected by HPLC, RH 75%” value came out at 98.16%; the “purity as detected by HPLC, RH 90%” value is 99.12%. Besides, the “purity as detected by HPLC, Lighting” value (day 10) is given as 97.51%.

As for `COc1nsc(NC(=O)N2C[C@H]3C[C@H](N(C)c4ncnc5[nH]ccc45)C[C@H]3C2)n1.O=S(=O)(O)O` [Crystal form I, (3aR,5s,6aS)—N-(3-methoxyl-1,2,4-thiadiazole-5-yl)-5-(methyl(7H-pyrrolo[2,3-d]pyrimidine-4-yl)amino)hexahydrocyclopenta[c]pyrrole-2(1H)-formamide bisulfate], the “effect of high humidity on stability” value is “does not have much effect”. Further, for the setting “day 0”, the “purity as detected by HPLC, 40° C.” value is listed as 99.45%; the “purity as detected by HPLC, 60° C.” value was 99.45%; the “purity as detected by HPLC, RH 75%” value is given as 99.45%; the “purity as detected by HPLC, RH 90%” value is 99.45%. For the same molecule, where the note is “day 0”, the “purity as detected by HPLC, Lighting” value was 99.45%. Where the note is “day 5”, the “purity as detected by HPLC, 40° C.” value was 99.42%; the “purity as detected by HPLC, 60° C.” value stood at 99.36%; the “purity as detected by HPLC, RH 75%” value was 99.42%; the “purity as detected by HPLC, RH 90%” value worked out at 99.42%. In addition, the “purity as detected by HPLC, Lighting” value (day 5) is listed as 99.40%. Under “day 10”, the “purity as detected by HPLC, 40° C.” value was 99.42%; the “purity as detected by HPLC, 60° C.” value is 99.35%; the “purity as detected by HPLC, RH 75%” value came out at 99.40%; the “purity as detected by HPLC, RH 90%” value was 99.39%. In addition, under “day 10”, the “purity as detected by HPLC, Lighting” value turned out to be 99.39%. Besides, for the setting “lighting and high temperature, compared with the amorphous sample”, the “stability under the conditions of lighting and high temperature” value is listed as “significantly better than that of the amorphous sample”.
